Source: patent publication US9540647B2, “Methods and compositions for the treatment of cancer” (University of South Alabama, priority 2010, dated 2017)
“Also recorded” adds a separate entry of the source. Read-outs that look alike come from different tables or passages of the source. Starred links: 1 amine or outer side, 2 acyl side, 3 side chain; linkers in the order of their positions; H or OH if unused. Positions of bridges follow the written chain, without caps; N, C: chain ends. Non-standard residues stand in square brackets, D forms with d. Residues, ends and D or L forms follow the SMILES beside them. Chains are numbered I, II in the order given. Actinocin(9to1) = Cc1c2oc3c(C)ccc(C(=O)[*:1])c3nc-2c(C(=O)[*:2])c(N)c1=O; NMeV = CN[C@H](C(=O)O)C(C)C; Nle = CCCC[C@H](N)C(=O)O; Sar = CNCC(=O)O

Assays:
ERCC1 = conditions: A2780-CP70; cited from earlier work
OPN promoter = OPN promoter luciferase reporter assay in metastatic melanoma cell lines; assay type: cell-based, human; conditions: MCC012A and MCC012F cell lines; tomatidine
Excerpt: Empty pGL3 vector was used as control. […] Readings were normalized to total protein content. Each parameter was studied in triplicate and the experiment repeated at least 3 times. The data are represented as percent luciferase activity, which was derived as a percent of the relative light units in treated groups compared with the untreated groups.

c-jun [1] = test: c-jun and c-fos protein expression and c-jun phosphorylation in A2780-CP70 cells (Western blot); assay type: cell-based, human; conditions: IC50 dose of cisplatin
Description: c-jun protein expression was assessed in cisplatin-treated A2780-CP70 cells using Western blot analysis.
Protein expression of c-fos and phosphorylation of c-jun in cyclopamine-treated A2780-CP70 cells was assessed using Western blot analysis. Protein levels for c-jun, c-fos, phosphorylated c-jun (Ser 63), phosphorylated c-jun (Ser 73), and phosphorylated c-jun (Thr 91, Thr 93) were tested in cytosolic, nuclear, and whole cell fractions at 0 hr, 6 hr, 24 hr, 48 hr, and 72 hr. Internal controls for cytosolic and nuclear fractions included α-tubulin and histone deacetylase 3.
Phosphorylation of c-jun in A2780-CP70 cells transfected with anti-GLI1 shRNA construct was assessed using Western blot analysis. Protein levels for c-jun, phosphorylated c-jun (Ser 63), phosphorylated c-jun (Ser 73), and phosphorylated c-jun (Thr 91, Thr 93) were examined at 0 hr, 6 hr, 24 hr, 48 hr, and 72 hr.

ERCC1, XPD, XRCC1 [2] = test: ERCC1, XPD and XRCC1 mRNA levels in A2780-CP70 cells (semi-quantitative PCR); assay type: cell-based, human; conditions: cells treated with cisplatin
A2780-CP70 cells [3] = conditions: A2780-CP70, cisplatin-resistant; cited from earlier work
c-jun [4] = conditions: cited from earlier work
ERCC1, XPD, XRCC1 [5] = conditions: cited from earlier work; for ERCC1, XPD, or XRCC1 regulation: previous experiments, agents at IC50 doses
A2780-CP70 cells [6] = test: Cisplatin sensitivity of A2780-CP70 cells (percent cell growth); conditions: read-out: IC50 of cisplatin
Description: Controls included α-tubulin and histone deactylase.
Transfected cells were treated with 0 μM, 2 μM, 5 μM, 10 μM, 30 μM, and 50 μM cisplatin at 24 hr post-transfection.

[7] = system: MDA-MB-435 (435) and SUM1315 (1315) cells; test: Drug sensitivity of cells transfected with shRNA to GLI1 (MTS assay); assay type: cell-based, human; conditions: cells transfected with shRNA to GLI1 vs empty vector; 24 hours
Description: MDA-MB-435 (435) and SUM1315 (1315) cells were transfected with either empty vector (vec) or with vector encoding shRNA to GLI1 (shGLI1). Cells were treated with the indicated concentrations of drugs for 24 hours and viability was assessed using an MTS assay (FIG. 62A-FIG. 62C). […] Using real-time quantitative RT-PCR the GLI1 shRNA brings about a decrease of about 50% in the expression of ABCB1 (MDR1) and 90% decrease in ABCG2 (BCRP).

[8] = system: GLI1-knocked down MDA-MB-435 cells; test: Migration, invasion and motility of GLI1-knocked down cells with OPN add-back; assay type: cell-based, human
Description: Motility Assay—These experiments were performed as previously described (Shevde, L. A., et al. (2006) Clin. Exp. Metastasis 23, 123-133). Images were acquired at T0, the reading at the initial time, and at T10 (10 h later). The experiment was conducted in duplicate and cell motility was calculated as (T0−T10)/T0, which represents the rate of movement over a 10-h period. For OPN add-back experiments the cells were pretreated for 12 h with 100 ng/ml human OPN (recombinant R & D Systems) and the assay conducted in the presence of OPN. Each experimental group was assessed in duplicate and data were recorded in three fields per well. Thus, six data points were recorded and analyzed per experimental group.
Invasion and Migration Assays—These experiments were performed as previously outlined (18) using a modified Boyden chamber assay. OPN add-back experiments for migration and invasion were conducted as described above with an additional step of pre-treating the cells for 24 h with rOPN. OPN was added to the upper and lower chambers (100 ng/ml) to ensure the OPN was present during the entire duration of the experiment. Each experimental group was assessed as three independent replicates.

RAW264.7 cells [9] = test: Osteoclast differentiation (TRAP assay); assay type: cell-based, murine; conditions: DM supplemented with OPN (100 ng/ml) or SHH (100 nM) vs DM
Description: Cell lines—Human metastatic breast cancer cells, MDA-MB-231, were cultured in Dulbecco's Modified Eagle's Medium (DMEM/F12; Invitrogen, Carlsbad, Calif.), supplemented with 2 mM L-glutamine, 1 mM sodium pyruvate, 0.02 mM non-essential amino acids, 5% fetal bovine serum, FBS (Atlanta Biologicals, Norcross, Ga.), without antibiotics or antimycotics (cDME/F12). SUM1315 and SUM159 cells (DiMeo, T. A., et al. (2009) Cancer Res 69, 5364-5373) (Asterand, Detroit, Mich.) were cultured in DMEM/F12 supplemented with […], 5% FBS (Atlanta Biologicals) and either 10 ng/ml EGF or 1 ng/ml hydrocortisone, without antibiotics or antimycotics. The SUM1315 cells are derived from a metastasis in a patient with infiltrating ductal carcinoma; SUM159 cells were derived from a primary breast tumor with metaplastic carcinoma. RAW264.7 (ATCC, TIB 71) cells, a murine pre-osteoclastic line capable of differentiation and […] in culture (in presence of RANKL and MCSF), were grown in DMEM with L-glutamine (ATCC, 30-2002) supplemented with 10% FBS. A 2× differentiation medium (DM) was formulated for the RAW 264.7 cells comprising RAW264.7 growth medium supplemented with 20% FBS, RANKL (100 ng/ml) and M-CSF (40 ng/ml) (Matsubara, T., et al. J Bone Miner Res 25, 1068-1076). Conditioned media was harvested from breast cancer cells and mixed in a 1:1 ratio with double strength differentiation medium to assess the effect on osteoclast differentiation. 1×DM was used as control or wherever SHH (R & D Systems, Minneapolis, Minn.) or OPN (R & D Systems) was used alone. The medium on the RAW264.7 cells was replenished every 48 hours. In order to assess the effect of secreted Hh ligands, the neutralizing 5E1 antibody was used (Developmental Studies Hybridoma Bank, at the University of Iowa, Iowa). […] Medium was supplemented with 5E1 (2.5 μg/ml) and was changed on alternate days until the end of the experiment. The effect of OPN on osteoclast activity was assessed by transfecting an OPN shRNA-expressing construct on day 6 post-induction of differentiation. Fresh DM was added the following day and cells were allowed to grow for another 12 hours before termination of experiment. GLI1 expression was silenced in the SUM1315 cells using shRNA targeting GLI1 into pSuperior. gfp+neo (Oligoengine, WA, USA). Silencing of OPN expression was done using OPN-targeting shRNA cloned into pSuper (Oligoengine)
Osteoclast differentiation and activity assays—Tartarate-resistant acid phosphatase (TRAP) assay was conducted for RAW 264.7 following the manufacturer's protocol (Sigma, St. Louis, Mo.). This assay was indicative of the extent of differentiation. […] The percentage of area resorbed was calculated using the NIS-Elements BR. […]

RAW264.7 cells [10] = test: Osteoclast resorption activity (OAAS plates); assay type: cell-based, murine; conditions: DM with OPN (100 ng/ml) or SHH (100 nM)
Description: Osteoclast differentiation and activity assays—Tartarate-resistant acid phosphatase (TRAP) assay was conducted for RAW 264.7 following the manufacturer's protocol (Sigma, St. Louis, Mo.). This assay was indicative of the extent of differentiation. OAAS plates (Osteogenic Core Technologies, Choongnam, Republic of Korea) were utilized to measure osteoclastic activity. RAW 264.7 cells (25×103) were inoculated in 48-well plates. Cells were treated with serum-free conditioned media from breast cancer cells or 100 nM SHH or 100 ng/ml OPN on the following day. Media was changed every two days and the experiments were terminated either on day 6 (day 7 for knockdown experiments, with transfections being done on the sixth day). At the completion, cells were detached with 5% sodium hypochlorite and the wells were observed under a Nikon Eclipse TS 100 microscope at 10× magnification. […] The percentage of area resorbed was calculated using the NIS-Elements BR. 3.1 software.

## CC[C@H](C)[C@@H]1NC(=O)CNC(=O)[C@@H]2Cc3c([nH]c4cc(O)ccc34)[S+]([O-])C[C@@H](NC(=O)CNC1=O)C(=O)N[C@@H](CC(N)=O)C(=O)N1C[C@H](O)C[C@H]1C(=O)N[C@@H]([C@@H](C)[C@@H](O)CO)C(=O)N2 (stereo in doubt) [α-amanitin]
ERCC1
  ERCC1 up-regulation after cisplatin exposure: blunted ERCC1 up-regulation

## CCCC[C@@H](C=O)NC(=O)[C@H](CC(C)C)NC(=O)[C@H](CC(C)C)NC(C)=O [N-acetyl-leucyl-leucyl-norleucinal] (Ac-Leu-Leu-[Nle]-aldehyde)
ERCC1
  ERCC1 up-regulation after cisplatin exposure: blunted ERCC1 up-regulation

## Cc1cc(C)c(/C=C2\C(=O)Nc3ccccc32)[nH]1 [SU5416]
ERCC1
  ERCC1 up-regulation after cisplatin exposure: blunted ERCC1 up-regulation

## C[C@H]1CC[C@]2(NC1)O[C@H]1C[C@H]3[C@@H]4CC[C@H]5C[C@@H](O)CC[C@]5(C)[C@H]4CC[C@]3(C)[C@H]1[C@@H]2C [Tomatidine, tomatidine]
OPN promoter
  promoter activity of OPN: no effect

## Cc1c2oc3c(C)ccc(C(=O)N[C@@H]4C(=O)N[C@H](C(C)C)C(=O)N5CCC[C@H]5C(=O)N(C)CC(=O)N(C)[C@@H](C(C)C)C(=O)O[C@@H]4C)c3nc-2c(C(=O)N[C@@H]2C(=O)N[C@H](C(C)C)C(=O)N3CCC[C@H]3C(=O)N(C)CC(=O)N(C)[C@@H](C(C)C)C(=O)O[C@@H]2C)c(N)c1=O [actinomycin D] (I: T[dV]P[Sar][NMeV] / II: T[dV]P[Sar][NMeV]; ester I:1-I:C, II:1-II:C; linker I:N-II:N via Actinocin(9to1))
ERCC1
  ERCC1 up-regulation after cisplatin exposure: blunted ERCC1 up-regulation

## [Cr] [chromium]
ERCC1
  ERCC1 up-regulation after cisplatin exposure: blunted ERCC1 up-regulation

## N.N.[Cl][Pt][Cl] [cisplatin]
c-jun [1]
  c-jun protein expression: increased substantial between 0-6 hr
ERCC1, XPD, XRCC1 [2]
  expression levels of ERCC1, XPD, and XRCC1 proteins, increase: 5 fold
A2780-CP70 cells [3]
  IC50: ~40 µM
c-jun [4]; 3-5 hr after cisplatin treatment
  phosphorylation of c-jun protein, peak over baseline: 15 fold
c-jun [4]; after cisplatin exposure
  time of peak c-jun (Ser 63/73) protein levels: 3 to 5 h
ERCC1, XPD, XRCC1 [5]; cells treated with cisplatin only
  expected increase in ERCC1 mRNA levels: 6 fold
ERCC1, XPD, XRCC1 [5]; cisplatin-treated cells (14 hr in untreated cells)
  ERCC1 mRNA half-life: 24 h
ERCC1, XPD, XRCC1 [5]
  ERCC1, XPD, or XRCC1 regulation: up-regulated
A2780-CP70 cells [6]; cells transfected with 0.07 μg/well anti-Gli1 shRNA construct, cisplatin at 24 hr post-transfection
  IC50: 8 µM
A2780-CP70 cells [6]; control cells
  IC50: 28 µM

## C[C@@H]1C[C@@H]([C@H](O)CC2CC(=O)NC(=O)C2)C(=O)[C@@H](C)C1 [cycloheximide]
ERCC1
  ERCC1 up-regulation after cisplatin exposure: blunted ERCC1 up-regulation

## COc1cccc2c1C(=O)c1c(O)c3c(c(O)c1C2=O)C[C@@](O)(C(=O)CO)C[C@@H]3O[C@H]1C[C@H](N)[C@H](O)[C@H](C)O1 [doxorubicin]
[7]
  sensitivity to drug (viability, MTS assay): increased sensitivity

## CO[C@H]1[C@@H](OC)C[C@H](C)[C@@H](OC)C2=CC(=O)C=C(NC(=O)/C(C)=C/C=C\[C@H](OC)[C@@H](OC(N)=O)/C(C)=C/[C@@H]1C)C2=O [herbimycin A]
ERCC1
  ERCC1 up-regulation after cisplatin exposure: blunted ERCC1 up-regulation

## CC(=O)N[C@@H](CSC(=O)[C@]1([C@@H](O)C(C)C)NC(=O)[C@H](C)[C@@H]1O)C(=O)O [lactacystin]
ERCC1
  ERCC1 up-regulation after cisplatin exposure: blunted ERCC1 up-regulation

## CCCCCCCCCCCCCC(=O)O[C@@H]1[C@@H](C)[C@@]2(O)[C@@H](C=C(CO)C[C@]3(O)C(=O)C(C)=C[C@@H]23)[C@@H]2C(C)(C)[C@]12OC(C)=O [phorbol ester]
ERCC1, XPD, XRCC1 [5]
  ERCC1, XPD, or XRCC1 regulation: up-regulated

## [Pt] [platinum]
ERCC1
  ERCC1 up-regulation after cisplatin exposure: blunted ERCC1 up-regulation

## CC(=O)O[C@H]1C(=O)[C@@]2(C)[C@H]([C@H](OC(=O)c3ccccc3)[C@]3(O)C[C@H](OC(=O)[C@H](O)[C@@H](NC(=O)c4ccccc4)c4ccccc4)C(C)=C1C3(C)C)[C@]1(OC(C)=O)CO[C@@H]1C[C@@H]2O [taxol]
[7]
  sensitivity to drug (viability, MTS assay): increased sensitivity

## OPN: recombinant human osteopontin (R & D Systems)
[8]; KO1 and KO4 cells in presence of recombinant OPN
  cell motility (wound healing assay): restored
[8]; KO1 and KO4 cells, OPN 100 ng/ml vs untreated
  cell invasion through Matrigel: significantly larger numbers
[8]; KO1 and KO4 cells, OPN 100 ng/ml vs untreated, modified Boyden chamber
  cell migration: significantly larger numbers
RAW264.7 cells [9]
  numbers of multinucleate TRAP-positive cells: stimulate osteoclast differentiation; also recorded: significantly (* indicates p<0.005) increases
RAW264.7 cells [10]
  resorption activity of differentiated osteoclasts: significantly (* indicates p<0.001) increases the resorption activity

B1: interleukin 1-α (protein, UniProt P01583 113-271, looked up)
Interleukin-1 alpha: SAPFSFLSNVKYNFMRIIKYEFILNDALNQSIIRANDQYLTAAALHNLDEAVKFDMGAYKSSKDDAKITVILRISKTQLYVTAQDEDQPVLLKEMPEIPKTITGSETNLLFFWETHGTKNYFTSVAHPNLFIATKQDYWVCLAGGPPSITDFQILENQA
ERCC1
  ERCC1 up-regulation after cisplatin exposure: blunted ERCC1 up-regulation
